Data: publication PMC10682503, “Structural and functional basis of inositol hexaphosphate stimulation of NHEJ through stabilization of Ku-XLF interaction” (Nucleic Acids Research, 2023)
Where two headings read alike, the source gives them in different places.

Experiments:
[1] = molecular target: T1, Ku-4E (Ku70 H359E-H360E/Ku80 K413E H414E) (Homo sapiens, UniProt P12956+P13010, H359E/H360E/H414E/K413E); assay: nanoDSF thermal stability of Ku-4E; settings: Ku-4E with DNA
T1 construct: 10x His-tag with TEV site (same vector as KuFL) (N); made in house; host or cells: Sf21 insect cells
T1 sequence (P12956 whole entry H359E/H360E): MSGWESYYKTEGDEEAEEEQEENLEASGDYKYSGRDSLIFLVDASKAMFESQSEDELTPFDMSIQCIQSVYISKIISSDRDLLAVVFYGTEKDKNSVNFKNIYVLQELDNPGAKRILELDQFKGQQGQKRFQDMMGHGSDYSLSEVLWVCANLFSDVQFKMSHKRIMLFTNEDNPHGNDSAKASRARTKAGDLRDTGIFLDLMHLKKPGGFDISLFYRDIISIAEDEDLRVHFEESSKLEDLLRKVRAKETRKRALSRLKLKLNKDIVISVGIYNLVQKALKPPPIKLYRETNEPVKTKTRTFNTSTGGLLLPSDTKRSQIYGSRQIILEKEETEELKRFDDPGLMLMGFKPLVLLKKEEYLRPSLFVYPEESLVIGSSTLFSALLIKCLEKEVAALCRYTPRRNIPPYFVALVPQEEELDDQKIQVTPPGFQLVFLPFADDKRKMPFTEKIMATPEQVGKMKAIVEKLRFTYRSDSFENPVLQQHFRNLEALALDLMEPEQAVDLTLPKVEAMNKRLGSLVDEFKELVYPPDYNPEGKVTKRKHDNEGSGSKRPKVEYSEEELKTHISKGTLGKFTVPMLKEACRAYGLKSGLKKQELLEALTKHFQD
T1 sequence (P13010 whole entry K413E/H414E): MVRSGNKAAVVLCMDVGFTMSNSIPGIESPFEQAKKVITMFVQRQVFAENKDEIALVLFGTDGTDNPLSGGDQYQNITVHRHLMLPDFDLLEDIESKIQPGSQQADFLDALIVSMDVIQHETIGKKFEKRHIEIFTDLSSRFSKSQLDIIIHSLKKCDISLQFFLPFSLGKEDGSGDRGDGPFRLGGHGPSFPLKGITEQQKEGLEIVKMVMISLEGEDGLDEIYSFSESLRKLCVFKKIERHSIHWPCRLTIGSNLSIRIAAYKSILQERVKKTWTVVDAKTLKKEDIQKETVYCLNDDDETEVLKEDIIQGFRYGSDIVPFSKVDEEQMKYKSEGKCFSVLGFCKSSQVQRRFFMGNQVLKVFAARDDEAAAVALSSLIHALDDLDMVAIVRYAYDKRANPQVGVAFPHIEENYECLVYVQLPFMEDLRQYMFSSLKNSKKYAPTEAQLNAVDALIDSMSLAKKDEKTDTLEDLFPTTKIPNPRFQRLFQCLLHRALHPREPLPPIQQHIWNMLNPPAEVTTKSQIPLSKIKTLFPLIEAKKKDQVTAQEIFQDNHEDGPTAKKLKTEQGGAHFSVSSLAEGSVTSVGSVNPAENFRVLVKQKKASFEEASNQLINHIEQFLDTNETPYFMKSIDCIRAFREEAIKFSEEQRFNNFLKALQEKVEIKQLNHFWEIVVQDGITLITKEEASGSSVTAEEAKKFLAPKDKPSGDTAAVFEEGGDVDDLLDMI

Ku-XLF interaction = molecular target: T2, Ku-XLF interaction (Homo sapiens, UniProt P12956+P13010); assay: switchSENSE analysis of Ku-DNA interaction with XLF; type: binding; settings: IP6 20 μM; for Kd: biphasic fit
T2 construct: The full-length human Ku heterodimer subunits (Ku70 1–609, Ku80 1–732); 10x His-tag with TEV site (N); made in house; host or cells: Sf21 insect cells (Ku)
T2 sequence (P12956 whole entry): as the sequence (P12956 whole entry H359E/H360E) above, with E359H, E360H counted along it
T2 sequence (P13010 whole entry): as the sequence (P13010 whole entry K413E/H414E) above, with E413K, E414H counted along it
T2 sequence (Q9H9Q4 whole entry partner): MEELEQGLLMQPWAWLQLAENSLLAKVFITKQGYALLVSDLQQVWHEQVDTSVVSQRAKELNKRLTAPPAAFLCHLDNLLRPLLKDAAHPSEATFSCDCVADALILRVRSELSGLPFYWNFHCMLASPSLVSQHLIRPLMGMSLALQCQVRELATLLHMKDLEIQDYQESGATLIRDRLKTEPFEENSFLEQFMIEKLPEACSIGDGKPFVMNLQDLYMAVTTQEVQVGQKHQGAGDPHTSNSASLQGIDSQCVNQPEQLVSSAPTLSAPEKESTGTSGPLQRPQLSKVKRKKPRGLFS
Protocol: switchSENSE: A DRX 2400 instrument and a multi-purpose 48bp chip were used for switchSENSE measurements (both Dynamic Biosensors GmbH; Planegg, Germany). The sample and running buffer was in 10 mM Tris HCl pH 7.4, 140 mM NaCl, 50 µM EDTA, 0.05 % Tween-20, 50µM EDTA. Kinetics experiments of Ku interaction with DNA in presence or absence of IP6 were performed on a DRX2 instrument. Complementary DNA to the strand immobilized on the chip was first hybridized on the measurement electrodes. The association and dissociation between Ku and DNA, with or without IP6 (3 µM) at Ku concentration (0-15-30-60-120-240 nM were measured in a flow rate of 200 µL/min. Kinetics experiments of Ku interaction with DNA and XLF with or without DNA were performed on a Helix instrument. The sample and running buffer was in 10 mM Tris HCl pH 7.4, 140 mM NaCl, 50 µM EDTA, 0.05 % Tween-20 with or without IP6 (20 µM). The flow rate of all conditions are at 500 µL/min.
A complementary DNA is hybridized onto an anchor DNA on the measurement chip in order to obtain a 96 base paired DNA with nick. KuFL is then captured under saturation condition (SI figure 13a and 13c). Association and dissociation between XLF and Ku-DNA is then monitored using 1, 2 or 8 µM of XLF, with or without IP6 in working buffer (SI figure 13c and d) . The fit is realised using biphasic model from BDS software.

Ku-DNA interaction = Ku-DNA interaction (Homo sapiens, UniProt P12956+P13010); assay: Single-molecule colocalization (TIRF) of Ku-AF647 on 18 bp DNA; type: binding; settings: IP6 10 μM
Chain of Ku-DNA interaction (P12956 whole entry): as the sequence (P12956 whole entry H359E/H360E) above, with E359H, E360H counted along it
Chain of Ku-DNA interaction (P13010 whole entry): as the sequence (P13010 whole entry K413E/H414E) above, with E413K, E414H counted along it
Protocol: Single molecule labelling, and flow channel preparation for single-molecule colocalization experiment are described in Supplemental Information. A single-molecule experiment was performed on a Total Internal Reflection Fluorescence (TIRF) microscope equipped with an inverted oil immersion objective (×100, 1.49 NA lens) coupled to 532 nm (Ultra-Laser, MGL-FN-532) and 639 nm (Ultra-Laser, MGL-FN-639) excitation lasers to excite the sample at TIRF illumination. A dichroic beam splitter (Semrock, Di03-635-t1) was used to split green and red signals, which were passed through narrow bandpass filters (Semrock, FF01-582/64 and FF01-680/42). The signals were collected by an electron-multiplying charge-coupled device (EM-CCD) (Andor, iXon897). Fluorescence beads (Invitrogen, Life Technologies Corporation, Eugene, OR) were used to map corresponding signals in green and red channels.
The BSA in the flow channel was washed with T50 buffer. […] Movies of 1 000 frames (33 Hz) were recorded with the red laser and both lasers turned on for the first 900 frames and last 100 frames, respectively. Four independent experiments were performed where at least 20 movies were recorded for each experimental condition. […]
Fluorescent labelling of Ku. […] The labelled protein was determined to have 50 % labelling efficiency, spectrophotometrically. […]

## O=P(O)(O)O[C@H]1[C@H](OP(=O)(O)O)[C@@H](OP(=O)(O)O)[C@H](OP(=O)(O)O)[C@@H](OP(=O)(O)O)[C@H]1OP(=O)(O)O [IP6, inositol hexaphosphate]
[1]
  further thermal stabilization by IP6: not further stabilized
Ku-XLF interaction
  KD1 stronger with IP6 than in absence of IP6: 3 fold
  KD2 stronger with IP6 than in absence of IP6: 14 fold
Ku-XLF interaction; without IP6 1.9 ± 0.8, read-out: KD2, apparent affinity between Ku and XLF
  Kd: 130 ± 9 nM
Ku-XLF interaction; without IP6 3.6 ± 0.6, read-out: KD1, apparent affinity between Ku and XLF
  Kd: 1200 ± 150 nM
Ku-DNA interaction
  kinetic dissociation constant (kOFF) of Ku from dsDNA: decreases
  residence times of Ku on DNA: slightly increases
